We go through four compounds from ChEMBL document CHEMBL1128274, “6-Aminoquinolones: a new class of quinolone antibacterials?” (1995).

In brackets after ≈: the same amount, converted by molar mass.

For one assay, the system named is Staphylococcus epidermidis. In words: Tested in vitro for inhibitory activity against gram positive bacteria Staphylococcus epidermidis HCF berset C strain. It is filed as functional.
Broadly, the MIC is the smallest concentration in the dilution series that meets the test's criterion for growth inhibition. As for `NCCN1CCN(c2cc3c(cc2N)c(=O)c(C(=O)O)cn3C2CC2)CC1`, the minimal inhibitory concentration (MIC) was 32 µg/mL (≈ 86.2 µM).
For the compound `C[C@@H]1CN(c2cc3c(cc2N)c(=O)c(C(=O)O)cn3C2CC2)C[C@H](C)N1`, inhibition of growth (MIC) required 4 µg/mL (≈ 11.2 µM).
Same read-out and setting: next, `CN1CCN(c2cc3c(cc2N)c(=O)c(C(=O)O)cn3-c2ccc(F)cc2)CC1`: 8 µg/mL (≈ 20.2 µM); `CC(C)(C)n1cc(C(=O)O)c(=O)c2cc(N)c(N3CCN(c4ccccn4)CC3)cc21`: 2 µg/mL (≈ 4.74 µM).

The next assay relates to Staphylococcus aureus. In words: Tested in vitro for inhibitory activity against gram positive bacteria Staphylococcus aureus ATCC 6538 strain. The class given is functional.
`NCCN1CCN(c2cc3c(cc2N)c(=O)c(C(=O)O)cn3C2CC2)CC1` gave an MIC of 128 µg/mL (≈ 345 µM).
On to `C[C@@H]1CN(c2cc3c(cc2N)c(=O)c(C(=O)O)cn3C2CC2)C[C@H](C)N1`, for which the MIC worked out at 8 µg/mL (≈ 22.4 µM).
Same read-out and setting: the same measure for `CN1CCN(c2cc3c(cc2N)c(=O)c(C(=O)O)cn3-c2ccc(F)cc2)CC1`: 8 µg/mL (≈ 20.2 µM).
For the compound `CC(C)(C)n1cc(C(=O)O)c(=O)c2cc(N)c(N3CCN(c4ccccn4)CC3)cc21`, it took 1 µg/mL (≈ 2.37 µM) to inhibit growth (MIC).

A further assay has as its system Shigella. In words: Tested in vitro for inhibitory activity against gram negative bacteria Shigella enteritidis. The class given is functional.
`NCCN1CCN(c2cc3c(cc2N)c(=O)c(C(=O)O)cn3C2CC2)CC1`: the MIC worked out at 2 µg/mL (≈ 5.38 µM).
As for `C[C@@H]1CN(c2cc3c(cc2N)c(=O)c(C(=O)O)cn3C2CC2)C[C@H](C)N1`, 0.25 µg/mL (≈ 0.701 µM) was the least that counted as inhibitory (MIC).
As for `CN1CCN(c2cc3c(cc2N)c(=O)c(C(=O)O)cn3-c2ccc(F)cc2)CC1`, the MIC came out at 4 µg/mL (≈ 10.1 µM).
On the same count and under the same terms, the same measure for `CC(C)(C)n1cc(C(=O)O)c(=O)c2cc(N)c(N3CCN(c4ccccn4)CC3)cc21`: 64 µg/mL (≈ 152 µM).

In a further assay the test system is Staphylococcus epidermidis. In words: Tested in vitro for inhibitory activity against gram positive bacteria Staphylococcus epidermidis CPHL A2 strain. It is filed as functional.
The compound `NCCN1CCN(c2cc3c(cc2N)c(=O)c(C(=O)O)cn3C2CC2)CC1` gave an MIC of 64 µg/mL (≈ 172 µM).
The same measure, in the same setting: next, `C[C@@H]1CN(c2cc3c(cc2N)c(=O)c(C(=O)O)cn3C2CC2)C[C@H](C)N1`: 2 µg/mL (≈ 5.61 µM); `CN1CCN(c2cc3c(cc2N)c(=O)c(C(=O)O)cn3-c2ccc(F)cc2)CC1`: 8 µg/mL (≈ 20.2 µM).
In the case of `CC(C)(C)n1cc(C(=O)O)c(=O)c2cc(N)c(N3CCN(c4ccccn4)CC3)cc21`, 1 µg/mL (≈ 2.37 µM) was the least that counted as inhibitory (MIC).

A further assay deals with Pseudomonas aeruginosa. In words: Tested in vitro for inhibitory activity against gram negative bacteria Pseudomonas aeruginosa ATCC 9027 strain. It is filed as functional.
The compound `NCCN1CCN(c2cc3c(cc2N)c(=O)c(C(=O)O)cn3C2CC2)CC1` gave an MIC of 32 µg/mL (≈ 86.2 µM).
Same read-out and setting: next, `C[C@@H]1CN(c2cc3c(cc2N)c(=O)c(C(=O)O)cn3C2CC2)C[C@H](C)N1`: 2 µg/mL (≈ 5.61 µM); `CN1CCN(c2cc3c(cc2N)c(=O)c(C(=O)O)cn3-c2ccc(F)cc2)CC1`: 8 µg/mL (≈ 20.2 µM); `CC(C)(C)n1cc(C(=O)O)c(=O)c2cc(N)c(N3CCN(c4ccccn4)CC3)cc21`: 128 µg/mL (≈ 304 µM).

For a further assay, the system named is Escherichia coli. In words: Tested in vitro for inhibitory activity against gram negative bacteria Escherichia coli ATCC 8739 strain. It is filed as functional.
`NCCN1CCN(c2cc3c(cc2N)c(=O)c(C(=O)O)cn3C2CC2)CC1` came in with an MIC of 0.5 µg/mL (≈ 1.35 µM).
Still for that read-out and setting: next, `C[C@@H]1CN(c2cc3c(cc2N)c(=O)c(C(=O)O)cn3C2CC2)C[C@H](C)N1`: 0.03 µg/mL (≈ 0.0842 µM); `CN1CCN(c2cc3c(cc2N)c(=O)c(C(=O)O)cn3-c2ccc(F)cc2)CC1`: 0.12 µg/mL (≈ 0.303 µM); `CC(C)(C)n1cc(C(=O)O)c(=O)c2cc(N)c(N3CCN(c4ccccn4)CC3)cc21`: 0.5 µg/mL (≈ 1.19 µM).

A further assay concerns Providencia stuartii. Put plainly: Tested in vitro for inhibitory activity against gram negative bacteria Providencia stuartii CNUR 5 strain. The class given is functional.
Compound `NCCN1CCN(c2cc3c(cc2N)c(=O)c(C(=O)O)cn3C2CC2)CC1` displayed an MIC of 128 µg/mL (≈ 345 µM).
On the same count and under the same terms, the same measure for `C[C@@H]1CN(c2cc3c(cc2N)c(=O)c(C(=O)O)cn3C2CC2)C[C@H](C)N1`: 4 µg/mL (≈ 11.2 µM); for `CN1CCN(c2cc3c(cc2N)c(=O)c(C(=O)O)cn3-c2ccc(F)cc2)CC1`: 4 µg/mL (≈ 10.1 µM); for `CC(C)(C)n1cc(C(=O)O)c(=O)c2cc(N)c(N3CCN(c4ccccn4)CC3)cc21`: 128 µg/mL (≈ 304 µM).

In another assay the test system is Staphylococcus aureus. Put plainly: Tested in vitro for inhibitory activity against gram positive bacteria Staphylococcus aureus MPR 5 strain. The class given is functional.
`NCCN1CCN(c2cc3c(cc2N)c(=O)c(C(=O)O)cn3C2CC2)CC1` showed an MIC of 128 µg/mL (≈ 345 µM).
On the same count and under the same terms, the same measure for `C[C@@H]1CN(c2cc3c(cc2N)c(=O)c(C(=O)O)cn3C2CC2)C[C@H](C)N1`: 8 µg/mL (≈ 22.4 µM); for `CN1CCN(c2cc3c(cc2N)c(=O)c(C(=O)O)cn3-c2ccc(F)cc2)CC1`: 4 µg/mL (≈ 10.1 µM); for `CC(C)(C)n1cc(C(=O)O)c(=O)c2cc(N)c(N3CCN(c4ccccn4)CC3)cc21`: 1 µg/mL (≈ 2.37 µM).

Another assay relates to Enterobacter cloacae. In words: Tested in vitro for inhibitory activity against gram negative bacteria Enterobacter cloacae OMNFI 174 strain. It is filed as functional.
On to `NCCN1CCN(c2cc3c(cc2N)c(=O)c(C(=O)O)cn3C2CC2)CC1`, for which the MIC is 2 µg/mL (≈ 5.38 µM).
On to `C[C@@H]1CN(c2cc3c(cc2N)c(=O)c(C(=O)O)cn3C2CC2)C[C@H](C)N1`, for which the MIC was 0.5 µg/mL (≈ 1.4 µM).
`CN1CCN(c2cc3c(cc2N)c(=O)c(C(=O)O)cn3-c2ccc(F)cc2)CC1` yielded an MIC of 4 µg/mL (≈ 10.1 µM).
The compound `CC(C)(C)n1cc(C(=O)O)c(=O)c2cc(N)c(N3CCN(c4ccccn4)CC3)cc21` had an MIC of 64 µg/mL (≈ 152 µM).

In the next assay the test system is Enterococcus faecalis. In words: Tested in vitro for inhibitory activity against gram positive bacteria Streptococcus faecalis LEP Br strain. It is filed as functional.
`NCCN1CCN(c2cc3c(cc2N)c(=O)c(C(=O)O)cn3C2CC2)CC1` registered an MIC of 128 µg/mL (≈ 345 µM).
`C[C@@H]1CN(c2cc3c(cc2N)c(=O)c(C(=O)O)cn3C2CC2)C[C@H](C)N1` came in with an MIC of 32 µg/mL (≈ 89.8 µM).
The same measure, in the same setting: next, `CN1CCN(c2cc3c(cc2N)c(=O)c(C(=O)O)cn3-c2ccc(F)cc2)CC1`: 64 µg/mL (≈ 161 µM); `CC(C)(C)n1cc(C(=O)O)c(=O)c2cc(N)c(N3CCN(c4ccccn4)CC3)cc21`: 16 µg/mL (≈ 38 µM).

A further assay deals with Acinetobacter calcoaceticus. In words: Tested in vitro for inhibitory activity against gram negative bacteria Acinetobacter calcoaceticus OSMPV 113 strain. It is filed as functional.
On to `NCCN1CCN(c2cc3c(cc2N)c(=O)c(C(=O)O)cn3C2CC2)CC1`, for which the MIC is 32 µg/mL (≈ 86.2 µM).
As for `C[C@@H]1CN(c2cc3c(cc2N)c(=O)c(C(=O)O)cn3C2CC2)C[C@H](C)N1`, the MIC was 8 µg/mL (≈ 22.4 µM).
On the same count and under the same terms, the same measure for `CN1CCN(c2cc3c(cc2N)c(=O)c(C(=O)O)cn3-c2ccc(F)cc2)CC1`: 16 µg/mL (≈ 40.4 µM).
For `CC(C)(C)n1cc(C(=O)O)c(=O)c2cc(N)c(N3CCN(c4ccccn4)CC3)cc21`, the MIC was 1 µg/mL (≈ 2.37 µM).

Another assay relates to Escherichia coli. Put plainly: Tested in vitro for inhibitory activity against gram negative bacteria Escherichia coli ISF 432 strain. The class given is functional.
On to `NCCN1CCN(c2cc3c(cc2N)c(=O)c(C(=O)O)cn3C2CC2)CC1`, for which the MIC amounted to 0.5 µg/mL (≈ 1.35 µM).
The compound `C[C@@H]1CN(c2cc3c(cc2N)c(=O)c(C(=O)O)cn3C2CC2)C[C@H](C)N1` showed an MIC of 0.03 µg/mL (≈ 0.0842 µM).
With `CN1CCN(c2cc3c(cc2N)c(=O)c(C(=O)O)cn3-c2ccc(F)cc2)CC1`, the minimum inhibitory concentration (MIC) was 0.12 µg/mL (≈ 0.303 µM).
Same read-out and setting: next, `CC(C)(C)n1cc(C(=O)O)c(=O)c2cc(N)c(N3CCN(c4ccccn4)CC3)cc21`: 0.5 µg/mL (≈ 1.19 µM).

The test system of another assay is Klebsiella pneumoniae. In words: Tested in vitro for inhibitory activity against gram negative bacteria Klebsiella pneumoniae ATCC 10031 strain. It is filed as functional.
`NCCN1CCN(c2cc3c(cc2N)c(=O)c(C(=O)O)cn3C2CC2)CC1` displayed a minimum inhibitory concentration (MIC) of 0.5 µg/mL (≈ 1.35 µM).
`C[C@@H]1CN(c2cc3c(cc2N)c(=O)c(C(=O)O)cn3C2CC2)C[C@H](C)N1`: it took 0.03 µg/mL (≈ 0.0842 µM) to inhibit growth (MIC).
Regarding `CN1CCN(c2cc3c(cc2N)c(=O)c(C(=O)O)cn3-c2ccc(F)cc2)CC1`, the MIC worked out at 0.12 µg/mL (≈ 0.303 µM).
With `CC(C)(C)n1cc(C(=O)O)c(=O)c2cc(N)c(N3CCN(c4ccccn4)CC3)cc21`, the MIC amounted to 0.25 µg/mL (≈ 0.593 µM).
